Our source for the IC50 values is patent publication US12516038B2, “Inhibitors of antigen presentation by HLA-DR” (Janssen Pharmaceutica NV, priority 2020, dated 2026).

Assay [1] has as its system HLA-DR4 restricted mouse T cell hybridoma line (DR4.CII.36.8) with HLA-DRB1*04:01-expressing Boleth cells. In words: HLA-DR4-restricted peptide-specific T cell-based assay (hybridoma assay). Conditions: Mus musculus, T-cell, 6 h, inhibition of IL-2 production, CII259-273 peptide presented by Boleth cells. In outline: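 IC50 values derive from 4-parameter logistic fits of IL-2 AlphaLISA signal over 8-point duplicate titrations. Compound and HLA-DRB1*04:01 Boleth APCs were preincubated 1 h, 37° C., before adding CII259-273-restricted DR4.CII.36.8 hybridoma cells with peptide for 6 h at 37° C., in DMEM/1% FCS.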

Assay [2] deals with human peripheral blood CD4+ helper T cells. In words: Pan-CD4+ T cell activation (off-target assay). It counts as cell-based. The settings on record: Homo sapiens, T-cell, 24 h, anti-CD3/anti-CD28 stimulation, IL-2 production by ELISA. An excerpt: The counter-screening was made through an HLA-DR-independent assay (Pan-CD4+ T cell activation assay), i.e., TCR-stimulated pan-T cell activation assay, and consists of activating T cell directly with agonistic antibody targeting the T cell receptor. The lack of inhibition in the counter-screening assay reflects that the inhibition of T cell activation in the HLA-DR4 restricted peptide-specific T cell based assay with the small molecule inhibitors is due to impaired antigen presentation on HLA-DR to the T cell and not due to a direct inhibition of the T cell function by an off-target mechanism (i.e., independently of targeting HLA-DR).
Pan-CD4+ T Cell Activation
Compounds were tested using a pan-T cell activation assay. In this assay, anti-human CD3 antibody (BD Pharmingen #55336) pre-coated at 1 μg/mL to a 96-well assay plate and 1 μg/ml soluble anti-human CD28 (EBioscience #16-0289-85) antibody were used for activating human peripheral blood CD4+ helper T cells (no HLA-DR-expressing APC were present in this assay format), in the presence of compounds (or vehicle control) for 24 hrs. IL-2 production was measured in the culture supernatant by ELISA (Human IL-2 Duo Set ELISA #DY202 from R&D Systems).
In general terms: In an ELISA, binding on a coated surface is turned into a signal by an enzyme label.

The next assay has as its target HLA-DRB1*0401 (Homo sapiens (Human), UniProt P01903+P01911, A100K/A169T/DEL228-266/F76Y/I96L/K127E/L162R/M171V/N62H/P40V/Q125Y/R42H/S133A/S149N/S66Y/V115G/V209L/W38E). In words: HLA-DR4 HTRF assay. Conditions: inhibition of loading of Alexa Fluor 647-labeled Cit-CII peptide onto HLA-DR4 (CLIP cleaved). It counts as binding. A digest of the protocol:
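HLA-DRB1*04:01 construct (α/β fused to human Fc, CLIP pre-cleaved by HRV3C overnight at 4° C) at 3 nM was preincubated 45 min with compound and 1 nM anti-Fc-Tb donor, then 40 nM Alexa647-Cit-CII1236-1249 peptide added. After 90 min at 37° C, the 665/620 nm HTRF ratio gave % inhibition; IC50 by nonlinear regression.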
A general note: TR-FRET usually uses a lanthanide donor and a delayed reading to cut background.

Take `N#Cc1ccccc1[C@H](Oc1ccc2c(c1)OCCC2=O)c1ccncc1` (single isomer, unassigned) [Example 7a, (*R)-2-(((4-Oxochroman-7-yl)oxy)(pyridin-4-yl)methyl)benzonitrile]: the figures for the IC50 (in assay [1]; in assay [2]; on HLA-DRB1*0401) were 4.6 µM, 4.4 µM and 0.69 µM, respectively.
The like results for `Cc1c(O[C@@H](c2ccncc2)c2ccc(C(N)=O)cc2)c(F)cc2c1OCCC2=O` (single isomer, unassigned) [Example 58a, (*R)-4-(((6-fluoro-8-methyl-4-oxochroman-7-yl)oxy)(pyridin-4-yl)methyl)benzamide] were, in that order, 0.18 µM, 5.3 µM and 0.33 µM.
For `CCc1c(O[C@H](c2ccncc2)c2ccc(C(N)=O)cc2)ccc2c1OCCC2=O` (single isomer, unassigned) [Example 73b, (*S)-4-(((8-ethyl-4-oxochroman-7-yl)oxy)(pyridin-4-yl)methyl)benzamide], in that order: 0.71 µM, 15 µM and 0.6 µM.
For `COc1cc([C@@H](Oc2ccc3c(c2)OCCC3=O)c2ccc(C(N)=O)cc2)ccn1` (single isomer, unassigned) [Example 24b, (*S)-4-((2-methoxypyridin-4-yl)((4-oxochroman-7-yl)oxy)methyl)benzamide], in that order: 2.7 µM, 4.7 µM and 1.2 µM.
For the compound `NC(=O)c1ccc([C@@H](Oc2ccc3c(c2)OCCC3=O)c2ccccc2)cc1` (single isomer, unassigned) [Example 29b, (*S)-4-(((4-oxochroman-7-yl)oxy)(phenyl)methyl)benzamide], the IC50 in assay [1] was 5 µM; in assay [2], > 15 µM; on HLA-DRB1*0401 it was 0.96 µM.
For `NC(=O)c1ccc([C@@H](Oc2ccc3c(c2-c2ccccc2)OCCC3=O)c2ccncc2)cc1` (single isomer, unassigned) [Example 53a, (*R)-4-(((4-oxo-8-phenylchroman-7-yl)oxy)(pyridin-4-yl)methyl)benzamide], in that order: 0.74 µM, 2.1 µM and 0.8 µM.
For `CN(C)C(=O)c1ccc([C@H](Oc2ccc3c(c2)OCCC3=O)c2ccncc2)cc1` (single isomer, unassigned) [Example 72b, (*S)—N,N-dimethyl-4-(((4-oxochroman-7-yl)oxy)(pyridin-4-yl)methyl)benzamide], in that order: 11 µM, > 15 µM and 0.69 µM.
For `C[C@@H]1CC(=O)c2ccc(O[C@@H](c3ccncc3)c3ccc(C(N)=O)cc3)cc2O1` (single isomer, unassigned) [Example 39b, 4-((*R)—(((*R)-2-Methyl-4-oxochroman-7-yl)oxy)(pyridin-4-yl)methyl)benzamide], in that order: 0.6 µM, 9.9 µM and 0.85 µM.
On to `CC[C@@H]1CC(=O)c2ccc(OCc3ccnc(C)c3)cc2O1` (single isomer, unassigned) [Example 118a, (*R)-2-ethyl-7-((2-methylpyridin-4-yl)methoxy)chroman-4-one], for which the values for the half-inhibitory concentration (IC50) (in assay [1]; in assay [2]; on HLA-DRB1*0401) were 7.5 µM, > 15 µM and 0.96 µM, respectively.
For `NC(=O)c1ccc([C@H](Oc2ccc3c(c2)OCCC3=O)c2ccncc2-c2ccccc2)cc1` (single isomer, unassigned) [Example 25b, (*S)-4-(((4-oxochroman-7-yl)oxy)(3-phenylpyridin-4-yl)methyl)benzamide], in that order: 4.5 µM, 3.2 µM and 0.49 µM.
For `CCc1c(O[C@@H](c2ccncc2)c2ccc(C(N)=O)cc2)ccc2c1OCCC2=O` (single isomer, unassigned) [Example 73a, (*R)-4-(((8-ethyl-4-oxochroman-7-yl)oxy)(pyridin-4-yl)methyl)benzamide], in that order: 0.11 µM, 8 µM and 0.54 µM.
For the compound `Cc1c(O[C@H]2CCc3cc(C(N)=O)ccc32)ccc2c1OCCC2=O` (single isomer, unassigned) [Example 121b, (*S)-1-((8-methyl-4-oxochroman-7-yl)oxy)-2,3-dihydro-1H-indene-5-carboxamide], the IC50 in assay [1] is 14 µM; in assay [2], > 15 µM; at HLA-DRB1*0401, 0.83 µM.
For `NC(=O)c1ccc([C@H](Oc2ccc3c(c2-c2ccc(-c4ccccc4)cc2)OCCC3=O)c2ccncc2)cc1` (single isomer, unassigned) [Example 79b, (*S)-4-(((8-([1,1′-biphenyl]-4-yl)-4-oxochroman-7-yl)oxy)(pyridin-4-yl)methyl)benzamide], in that order: 0.97 µM, > 15 µM and 49 µM.
The like results for `Cc1cc2c(c(C)c1O[C@@H](c1ccncc1)c1ccc(C#N)cc1)OCCC2=O` (single isomer, unassigned) [Example 88a, (*R)-4-(((6,8-dimethyl-4-oxochroman-7-yl)oxy)(pyridin-4-yl)methyl)benzonitrile] were, in that order, 2.2 µM, > 15 µM and 0.4 µM.
The like results for `CNC(=O)c1ccc([C@@H](Oc2ccc3c(c2)OCCC3=O)c2ccncc2)cc1` (single isomer, unassigned) [Example 34a, (*R)—N-methyl-4-(((4-oxochroman-7-yl)oxy)(pyridin-4-yl)methyl)benzamide] were, in that order, 12 µM, 9.9 µM and 0.8 µM.
With `O=C1CCOc2cc(O[C@@H](c3ccncc3)c3cccc(F)c3)ccc21` (single isomer, unassigned) [Example 2b, (*S)-7-((3-Fluorophenyl)(pyridin-4-yl)methoxy)chroman-4-one], the IC50 was 3.9 µM in assay [1], > 15 µM in assay [2] and 1.8 µM at HLA-DRB1*0401.
The like results for `O=C1CCOc2cc(O[C@H](c3ccncc3)c3ccc(F)cc3)ccc21` (single isomer, unassigned) [Example 3b, (*S)-7-((4-Fluorophenyl)(pyridin-4-yl)methoxy)chroman-4-one] were, in that order, 2.1 µM, > 15 µM and 1.3 µM.
For `Cc1cc2c(cc1O[C@H](c1ccncc1)c1ccc(C(N)=O)cc1)OCCC2=O` (single isomer, unassigned) [Example 49b, (*S)-4-(((6-Methyl-4-oxochroman-7-yl)oxy)(pyridin-4-yl)methyl)benzamide], in that order: 3 µM, 15 µM and 1 µM.
Regarding `Cc1c(O[C@H](c2ccc(C(N)=O)cc2)c2cccc(F)c2)ccc2c1OCCC2=O` (single isomer, unassigned) [Example 67a, (*R)-4-((3-Fluorophenyl)((8-methyl-4-oxochroman-7-yl)oxy)methyl)benzamide], the half-inhibitory concentration (IC50) in assay [1] came out at 2.7 µM; in assay [2], 15 µM; against HLA-DRB1*0401, 3.1 µM.
In the case of `CC(C)c1cc2c(cc1O[C@H](c1ccncc1)c1ccc(C(N)=O)cc1)OCCC2=O` (single isomer, unassigned) [Example 76b, (*S)-4-(((6-isopropyl-4-oxochroman-7-yl)oxy)(pyridin-4-yl)methyl)benzamide], the IC50 in assay [1] came out at 3.1 µM; in assay [2] it was 15 µM; against HLA-DRB1*0401 it was 1 µM.
Regarding `CCC1COc2cc(OCc3ccncc3)ccc2C1=O` (racemic) [Example 120, (R,S)-3-Ethyl-7-(pyridin-4-ylmethoxy)chroman-4-one], the results for the half-maximal inhibitory concentration (IC50) (in assay [1]; in assay [2]; against HLA-DRB1*0401) were 5.1 µM, > 15 µM and 1.2 µM, respectively.
Take `Cc1c(O[C@H](c2ccc(Cl)cc2)c2ccc(C(N)=O)nc2)ccc2c1OCCC2=O` (single isomer, unassigned) [Example 64a, (*R)-5-((4-chlorophenyl)((8-methyl-4-oxochroman-7-yl)oxy)methyl)picolinamide]: the IC50 was determined as 6 µM in assay [1], 2 µM in assay [2] and 1.7 µM on HLA-DRB1*0401.
For `COc1cccc([C@@H](Oc2ccc3c(c2)OCCC3=O)c2ccncc2)c1` (single isomer, unassigned) [Example 13b, (*S)-7-((3-methoxyphenyl)(pyridin-4-yl)methoxy)chroman-4-one], in that order: 4.7 µM, > 15 µM and 1.4 µM.

In general, IC50 refers to the concentration that inhibits the measured activity by half. The low end stands for greater potency, the high end for weaker potency.
